From ChEMBL document CHEMBL5226375, “Synthesis and Comprehensive in Vivo Activity Profiling of Olean-12-en-28-ol, 3β-Pentacosanoate in Experimental Autoimmune Encephalomyelitis: A Natural Remyelinating and Anti-Inflammatory Agent” (J Nat Prod, 2023)
The source made the active and inactive calls. No cut-off for these calls is given here.

How the values were obtained:
[1] = Stability of the compound in THF/phosphate buffer at pH 2.5 incubated for 2 hrs under stirring conditions by 1H-NMR analysis; format: physicochemical; settings: pH 2.5, 2 h
Mus musculus [2] = test: Anti-inflammatory activity against MOG35-55-induced experimental autoimmune encephalomyelitis C57BL/6 mouse model assessed as reduction in EAE symptoms by measuring reduction in clinical score at 300 to 600 mg/kg/day, ig starting from 12th day of immunization and measured on day 14 post-immunization; format: functional, organism-based; settings: dose 300-600 mg/kg/day, time 2.0 day
Mus musculus [3] = test: Anti-inflammatory activity against MOG35-55-induced experimental autoimmune encephalomyelitis C57BL/6 mouse model assessed as fold change in CXCL10 gene expression in brain at 600 mg/kg/day, ig for 14 days starting from 12th day of immunization by RT-qPCR analysis relative to control; format: functional; settings: time 14 day
Mus musculus [4] = test: Anti-inflammatory activity against MOG35-55-induced experimental autoimmune encephalomyelitis C57BL/6 mouse model assessed as fold change in TGFB1 gene expression in brain at 600 mg/kg/day, ig for 14 days starting from 12th day of immunization by RT-qPCR analysis relative to control; format: functional; settings: time 14 day
Mus musculus [5] = test: Anti-inflammatory activity against MOG35-55-induced experimental autoimmune encephalomyelitis C57BL/6 mouse model assessed as fold change in TGFB1 gene expression in brain at 300 mg/kg/day, ig for 14 days starting from 12th day of immunization by RT-qPCR analysis relative to control; format: functional; settings: time 14 day
Mus musculus [6] = test: Anti-inflammatory activity against MOG35-55-induced experimental autoimmune encephalomyelitis C57BL/6 mouse model assessed as fold change in MMP9 gene expression in brain at 300 mg/kg/day, ig for 14 days starting from 12th day of immunization by RT-qPCR analysis relative to control; format: functional; settings: time 14 day
Mus musculus [7] = test: Anti-inflammatory activity against MOG35-55-induced experimental autoimmune encephalomyelitis C57BL/6 mouse model assessed as fold change in YWHAH gene expression in brain at 300 mg/kg/day, ig for 14 days starting from 12th day of immunization by RT-qPCR analysis relative to control; format: functional; settings: time 14 day
Mus musculus [8] = test: Anti-inflammatory activity against MOG35-55-induced experimental autoimmune encephalomyelitis C57BL/6 mouse model assessed as reduction in APP protein expression in brain at 300 to 600 mg/kg/day, ig for 14 days starting from 12th day of immunization by western blot analysis relative to control; format: functional; settings: dose 300-600 mg/kg/day, time 14 day
Mus musculus [9] = test: Anti-inflammatory activity against MOG35-55-induced experimental autoimmune encephalomyelitis C57BL/6 mouse model assessed as upregulation of PLP protein expression in brain at 300 to 600 mg/kg/day, ig for 14 days starting from 12th day of immunization by western blot analysis relative to control; format: functional; settings: dose 300-600 mg/kg/day, time 14 day
Mus musculus [10] = test: Anti-inflammatory activity against MOG35-55-induced experimental autoimmune encephalomyelitis C57BL/6 mouse model assessed as reduction in serum chemokines level by measuring reduction in CCL5 level at 600 mg/kg/day, ig for 14 days starting from 12th day of immunization by ELISA; format: functional, organism-based; settings: time 14.0 day
Mus musculus [11] = test: Anti-inflammatory activity against MOG35-55-induced experimental autoimmune encephalomyelitis C57BL/6 mouse model assessed as methylation of CpG sites of CXCL14 gene promoter in brain at 600 mg/kg, ig for 14 days starting from 12th day of immunization by PCR analysis (reference value: 46.5 +/-6%); format: functional; settings: time 14 day
Mus musculus [12] = test: Anti-inflammatory activity against MOG35-55-induced experimental autoimmune encephalomyelitis C57BL/6 mouse model assessed as methylation of CpG sites of TGFB1 gene promoter in brain at 600 mg/kg, ig for 14 days starting from 12th day of immunization by PCR analysis (reference value: 18.3 +/-4%); format: functional; settings: time 14 day
Mus musculus [13] = test: Anti-inflammatory activity against MOG35-55-induced experimental autoimmune encephalomyelitis C57BL/6 mouse model assessed as fold change in STAT3 gene expression in brain at 0.3 mg/kg/day, ig for 14 days starting from 12th day of immunization by RT-qPCR analysis relative to control; format: functional; settings: time 14 day
Mus musculus [14] = test: Anti-inflammatory activity against MOG35-55-induced experimental autoimmune encephalomyelitis C57BL/6 mouse model assessed as fold change in GFAP gene expression in brain at 0.3 mg/kg/day, ig for 14 days starting from 12th day of immunization by RT-qPCR analysis relative to control; format: functional; settings: time 14 day
Mus musculus [15] = test: Anti-inflammatory activity against MOG35-55-induced experimental autoimmune encephalomyelitis C57BL/6 mouse model assessed as fold change in NFKB gene expression in brain at 0.15 mg/kg/day, ig for 14 days starting from 12th day of immunization by RT-qPCR analysis relative to control; format: functional; settings: time 14 day
Mus musculus [16] = test: Anti-inflammatory activity against MOG35-55-induced experimental autoimmune encephalomyelitis C57BL/6 mouse model assessed as fold change in TGFB1 gene expression in brain at 0.15 mg/kg/day, ig for 14 days starting from 12th day of immunization by RT-qPCR analysis relative to control; format: functional; settings: time 14 day
Mus musculus [17] = test: Anti-inflammatory activity against MOG35-55-induced experimental autoimmune encephalomyelitis C57BL/6 mouse model assessed as reduction in serum monokines level by measuring reduction in IL-6 level at 0.3 mg/kg/day, ig for 14 days starting from 12th day of immunization by ELISA; format: functional, organism-based; settings: time 14.0 day
Mus musculus [18] = test: Anti-inflammatory activity against MOG35-55-induced experimental autoimmune encephalomyelitis C57BL/6 mouse model assessed as methylation of CpG sites of CXCL14 gene promoter in brain at […], ig for 14 days starting from 12th day of immunization by PCR analysis (reference value: 46.5 +/-6%); format: functional; settings: time 14 day
Mus musculus [19] = test: Anti-inflammatory activity against MOG35-55-induced experimental autoimmune encephalomyelitis C57BL/6 mouse model assessed as methylation of CpG sites of IL10RA gene promoter in brain at […], ig for 14 days starting from 12th day of immunization by PCR analysis (reference value: 34.9 +/-4%); format: functional; settings: time 14 day
Mus musculus [20] = test: Anti-inflammatory activity against MOG35-55-induced experimental autoimmune encephalomyelitis C57BL/6 mouse model assessed as methylation of CpG sites of IL18 gene promoter in brain at […], ig for 14 days starting from 12th day of immunization by PCR analysis (reference value: 29.2 +/-8%); format: functional; settings: time 14 day
Mus musculus [21] = test: Anti-inflammatory activity against MOG35-55-induced experimental autoimmune encephalomyelitis C57BL/6 mouse model assessed as methylation of CpG sites of SOCS5 gene promoter in brain at […], ig for 14 days starting from 12th day of immunization by PCR analysis (reference value: 10.6 +/-4%); format: functional; settings: time 14 day
Mus musculus [22] = test: Anti-inflammatory activity against MOG35-55-induced experimental autoimmune encephalomyelitis C57BL/6 mouse model assessed as methylation of CpG sites of TGFB1 gene promoter in brain at […], ig for 14 days starting from 12th day of immunization by PCR analysis (reference value: 18.3 +/-4%); format: functional; settings: time 14 day

SMILES: CCCCCCCCCCCCCCCCCCCCCCCCC(=O)O[C@H]1CC[C@]2(C)[C@H]3CC=C4[C@@H]5CC(C)(C)CC[C@]5(CO)CC[C@@]4(C)[C@]3(C)CC[C@H]2C1(C)C
- Stability [1]: Stable
- Activity (Mus musculus [2]): Active
- fold change (FC) (Mus musculus [3]): 1.93
- fold change (FC) (Mus musculus [4]): 8.29
- fold change (FC) (Mus musculus [5]): -1.51
- fold change (FC) (Mus musculus [6]): 1.42
- fold change (FC) (Mus musculus [7]): -1.38
- fold change (FC) (Mus musculus [8]): 2
- fold change (FC) (Mus musculus [9]): 2
- Activity (Mus musculus [10]): Active
- Activity (Mus musculus [11]): 65.3%
- Activity (Mus musculus [12]): 39.8%

SMILES: CCCCCCCCc1ccc(CCC(N)(CO)CO)cc1 [FINGOLIMOD]
- fold change (FC) (Mus musculus [13]): 1.87
- fold change (FC) (Mus musculus [14]): 1.92
- fold change (FC) (Mus musculus [15]): 2.04
- fold change (FC) (Mus musculus [16]): 1.86
- Activity (Mus musculus [17]): Active
- Activity (Mus musculus [18]): 73.6%
- Activity (Mus musculus [19]): 51%
- Activity (Mus musculus [20]): 29.5%
- Activity (Mus musculus [21]): 8.8%
- Activity (Mus musculus [22]): 35.1%
